From patent publication US10919877B2, “Multifunctional inhibitors of MEK/PI3K and mTOR/MEK/PI3K biological pathways and therapeutic methods using the same” (THE REGENTS OF THE UNIVERSITY OF MICHIGAN, priority 2016, dated 2021)
“Also recorded” adds a separate entry of the source. Where two headings read alike, the source gives them in different places. Each block holds one molecule with its values, some of them ahead of it.

Experiments:
[1] = system: Akt phosphorylation; test: In vivo PI3K inhibition in flank D54 and A549 tumor bearing mice (Western blot)
[2] = system: colon tumors CT-26; test: Tumor growth of subcutaneous colon tumors; assay type: in vivo, mice; details: for tumor growth: subcutaneous CT26, 400 mg/kg oral gavage, 14 days, vs vehicle
Protocol: (§1) In preliminary studies, several mouse models were tested for therapeutic efficacy using oral administration of ST-162. Athymic nude Foxn1 nu mice were used to evaluate oncogenic target modulation activity in vivo. Mice bearing intracerebral D54 tumors, subcutaneous colon tumors (CT26) and subcutaneous melanoma (A375 and A2058) tumors were treated with either vehicle control or 400 mg/kg of compound ST-162 by oral gavage for 14-30+ days.
In FIG. 10, compound ST-162 was administered for 14 days beginning when subcutaneous colon tumors CT-26 were measurable by caliper and MRI and tumor volumes were measured over time and compared to vehicle controls.
In FIG. 11, ST-162 was administered for 14 days beginning when subcutaneous colon tumors CT-26 were measurable by caliper and MRI and tumor volumes were measured over time and compared to vehicle controls. At day 14, two tumors were removed and compared for size and weight.

[3] = molecular target: T1, PI3Kβ (Homo sapiens, UniProt P42338); test: PI3K subtype enzyme inhibition; assay type: biochemical
T1 construct: purchased Life Technologies (assay run by the vendor)

[4] = system: A375 (melanoma), D54 (glioma), CT26 colorectal cancer, A2058 (melanoma) cell lines; test: Concurrent inhibition in tumor cell lines (multifunctional inhibitors); assay type: cell-based
Excerpt: The synthesis of another series of single entity, multifunctional inhibitors achieved by covalent linking of structural analogs of a PI3K inhibitor mTOR inhibitor, and an MEK inhibitor is also disclosed.

[5] = system: D54 glioma cells; test: Cell viability, AlamarBlue assay; assay type: cell-based, human; details: dose dependence
[6] = system: pAkt in A549 and D54 cells; test: Cellular PI3K inhibition, Western blot of pAkt in cultured tumor cells; assay type: cell-based, human; details: 1 hour
Protocol: The in vitro MEK1 and PI3K inhibitory activity of these series of compounds was also assessed in cultured tumor cells (D54, A549). Cellular efficacy of MEK1 and PI3K inhibition by inhibitor compounds was measured by changes in phosphorylation of pErk1/2 and pAkt, respectively. […] Cells were incubated in the presence of indicated compounds for 1 hour and lysates probed with specific antibodies against pAKT and pERK 1/2 and compared with vehicle control (DMSO). A549 (FIG. 2A) and D54 (FIG. 2B) cells were treated with inhibitors at the indicated concentrations for 1 hour and subjected to Western blot analysis.
Western Blot Analysis. Cells were seeded in six-well dishes 24 hours prior to treatment and incubated with the respective inhibitor compound solutions for 1 h. Cells were washed with phosphatebuffered saline (PBS) and lysed with NP-40 lysis buffer (1% NP40, 150 mM NaCl, and 25 mM Tris, pH 8.0) supplemented with protease inhibitors (Complete protease inhibitor cocktail, Roche, Basel, Switzerland) and phosphatase inhibitors (PhosSTOP, Roche, Basel, Switzerland). Concentration of protein was determined using Lowry assays (Bio-Rad, Hercules, Calif.), and equal amounts of whole cell protein lysate were loaded in each lane and resolved using 4-12% gradient Bis-Tris gel (Invitrogen, CA). Proteins were transferred to 0.2 μm nitrocellulose membranes (Invitrogen, CA). Membranes were incubated overnight at 4° C. with primary antibodies after blocking, followed by incubation with appropriate horseradish peroxidase (HRP) conjugated secondary antibody at room temperature for 1 hour. ECL-Plus was used to detect the activity of peroxidase according to the manufacturer's protocol (Amersham Pharmacia, Uppsala, Sweden). Antibodies raised against phospho-p44/42 MAPK (Erk1/2) (Thr202/Tyr204), pAKT(5473), phospho-p70 S6K* and total ERK, AKT antibodies were purchased from Cell Signaling Technology (Beverly, Mass., USA), and anti-β actin (conjugated with HRP) was purchased from Abcam (Cambridge, Mass., USA). Secondary HRP antibodies were purchased from Jackson ImmunoResearch (St. Louis, Mo., USA).

[7] = system: MEK1 and PI3K activities; test: In vivo MEK1 and PI3K inhibition in subcutaneous colon tumor CT26 (Western blot); parameters: species or system mice; details: subcutaneous CT26, 400 mg/kg oral gavage, 2 hours
Protocol: Mice bearing subcutaneous colon tumors were treated with either vehicle or 400 mg/kg of ST-162 or ST-168 by oral gavage at 2 hours prior to sacrifice. The known MEK inhibitor 901 and PI3K inhibitors were also evaluated in this study.

[8] = system: A549 lung tumor cells; test: Cell viability, AlamarBlue assay; assay type: cell-based, human; details: dose dependence
[9] = molecular target: T2, PI3Kα (Homo sapiens, UniProt P42336); test: PI3K subtype enzyme inhibition; assay type: biochemical
T2 construct: purchased Life Technologies (assay run by the vendor)

[10] = molecular target: T3, PI3Kγ (Homo sapiens, UniProt P48736); test: PI3K subtype enzyme inhibition; assay type: biochemical
T3 construct: purchased Life Technologies (assay run by the vendor)

[11] = molecular target: T4, MEK1 (Homo sapiens, UniProt Q02750); test: In vitro MEK1 inhibition assay (Kinase-Glo luminescent kinase assay); assay type: biochemical; details: average of three experiments each conducted in duplicate
T4 construct: purchased Sigma-Aldrich

[12] = system: ERK1/2 phosphorylation; test: In vivo MEK1 inhibition in flank D54 and A549 tumor bearing mice (Western blot)
[13] = molecular target: PI3K (Homo sapiens, UniProt P42336); test: In vitro PI3K inhibition assay (Adapta TR-FRET); assay type: biochemical; details: average of three experiments each conducted in duplicate
[14] = system: pErk1/2 in A549 and D54 cells; test: Cellular MEK1 inhibition, Western blot of pErk1/2 in cultured tumor cells; assay type: cell-based, human; details: A549 and D54 cell lines, 1 hour
[15] = system: intracerebral D54 glioma tumors; test: Survival of mice bearing intracerebral D54 tumors; assay type: in vivo; details: intracerebral D54, 400 mg/kg oral gavage, vs vehicle control; listed as ST-162
Protocol: as §1

[16] = system: MEK1 and PI3K activities; test: In vivo MEK1 and PI3K inhibition in subcutaneous melanoma tumors A357 and A2058 (Western blot); parameters: species or system mice; details: s.q. melanoma A357 and A2058, 400 mg/kg oral gavage, 2 hours
Protocol: Mice bearing s.q. melanoma tumors were treated with either vehicle or 400 mg/kg of ST-162 or ST-168 by oral gavage at 2 hours prior to sacrifice.

[17] = system: melanoma tumors A2058 and A357; test: Tumor growth of subcutaneous melanoma tumors; assay type: in vivo, mice; details: 400 mg/kg oral gavage, 14 days, vs vehicle, listed as ST-162, 400 mg/kg
Protocol: as §1
In FIG. 9, compound ST-162 was administered for 14 days beginning when subcutaneous melanoma tumors A2058 and A357 were measurable by caliper and MRI and tumor volumes were measured over time and compared to vehicle controls.

[18] = system: MEK1 and PI3K activities; test: In vivo MEK1 and PI3K inhibition in intracerebral D54 glioma bearing mice (Western blot); details: intracerebral D54, 400 mg/kg oral gavage, 2 hours
Protocol: Mice bearing i.c. D54 tumors were treated with either vehicle or 400 mg/kg of ST-162 or ST-168 by oral gavage at 2 hours prior to sacrifice.

[19] = molecular target: T3, PI3Kγ; details: second value in parentheses, unexplained; cited from earlier work
[20] = molecular target: T5, PI3Kδ (Homo sapiens, UniProt O00329); test: PI3K subtype enzyme inhibition; assay type: biochemical
T5 construct: purchased Life Technologies (assay run by the vendor)

[21] = system: mTOR/MEK1/PI3K; test: In vivo inhibition in A375 flank tumor (Western blot); parameters: species or system mouse; details: oral, 2 hour postadministration
Excerpt: (§2) The synthesis of another series of single entity, multifunctional inhibitors achieved by covalent linking of structural analogs of a PI3K inhibitor mTOR inhibitor, and an MEK inhibitor is also disclosed. […] […].

[22] = system: A375 melanoma tumor; test: In vivo efficacy in A375 melanoma tumor bearing mice
Excerpt: as §2

[23] = D54 and A549 tumors, compound 14: 375 mg/kg oral gavage, 2 h, 375 mg/kg
[24] = oral administration, 2 h postadministration, Western blot
[25] = mean ± SEM, read-out: PI3K Subtype Inhibition Activity PI3Kβ
[26] = read-out: PI3K Subtype Enzyme Inhibition Data IC50 PI3Kβ
[27] = mean ± SEM, read-out: PI3K Subtype Inhibition Activity PI3Kα
[28] = mean ± SEM, read-out: PI3K Subtype Inhibition Activity PI3Kγ
[29] = read-out: PI3K Subtype Enzyme Inhibition Data IC50 PI3Kγ

T1 sequence (P42338 whole entry): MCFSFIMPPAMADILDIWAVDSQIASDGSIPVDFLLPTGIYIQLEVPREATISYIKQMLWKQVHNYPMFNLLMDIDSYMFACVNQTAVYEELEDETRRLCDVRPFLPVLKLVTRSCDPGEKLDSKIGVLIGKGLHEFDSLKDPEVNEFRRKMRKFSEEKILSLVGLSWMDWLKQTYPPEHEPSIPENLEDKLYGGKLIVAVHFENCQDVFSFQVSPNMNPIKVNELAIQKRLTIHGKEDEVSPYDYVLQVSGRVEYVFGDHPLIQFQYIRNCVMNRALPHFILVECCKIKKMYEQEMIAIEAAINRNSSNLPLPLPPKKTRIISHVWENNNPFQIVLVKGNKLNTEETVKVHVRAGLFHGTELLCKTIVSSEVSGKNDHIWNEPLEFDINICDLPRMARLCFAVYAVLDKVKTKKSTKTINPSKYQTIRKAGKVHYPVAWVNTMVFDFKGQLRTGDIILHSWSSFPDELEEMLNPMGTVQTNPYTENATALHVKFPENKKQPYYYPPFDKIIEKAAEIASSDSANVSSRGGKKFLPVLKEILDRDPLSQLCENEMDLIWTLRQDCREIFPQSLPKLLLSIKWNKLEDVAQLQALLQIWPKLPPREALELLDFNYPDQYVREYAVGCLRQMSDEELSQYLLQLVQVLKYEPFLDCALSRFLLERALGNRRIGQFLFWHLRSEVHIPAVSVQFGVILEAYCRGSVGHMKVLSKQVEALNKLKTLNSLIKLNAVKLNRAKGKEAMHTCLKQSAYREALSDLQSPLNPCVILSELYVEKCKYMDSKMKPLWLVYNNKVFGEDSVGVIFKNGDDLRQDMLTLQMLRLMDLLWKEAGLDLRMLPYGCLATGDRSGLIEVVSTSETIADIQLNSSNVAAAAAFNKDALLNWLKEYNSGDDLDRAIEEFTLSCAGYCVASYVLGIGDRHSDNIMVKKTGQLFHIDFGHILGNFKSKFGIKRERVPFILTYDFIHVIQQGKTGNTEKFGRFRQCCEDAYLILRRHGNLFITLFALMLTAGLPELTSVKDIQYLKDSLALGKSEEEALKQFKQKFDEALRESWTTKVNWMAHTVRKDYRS
T1 sequence (P27986 whole entry partner): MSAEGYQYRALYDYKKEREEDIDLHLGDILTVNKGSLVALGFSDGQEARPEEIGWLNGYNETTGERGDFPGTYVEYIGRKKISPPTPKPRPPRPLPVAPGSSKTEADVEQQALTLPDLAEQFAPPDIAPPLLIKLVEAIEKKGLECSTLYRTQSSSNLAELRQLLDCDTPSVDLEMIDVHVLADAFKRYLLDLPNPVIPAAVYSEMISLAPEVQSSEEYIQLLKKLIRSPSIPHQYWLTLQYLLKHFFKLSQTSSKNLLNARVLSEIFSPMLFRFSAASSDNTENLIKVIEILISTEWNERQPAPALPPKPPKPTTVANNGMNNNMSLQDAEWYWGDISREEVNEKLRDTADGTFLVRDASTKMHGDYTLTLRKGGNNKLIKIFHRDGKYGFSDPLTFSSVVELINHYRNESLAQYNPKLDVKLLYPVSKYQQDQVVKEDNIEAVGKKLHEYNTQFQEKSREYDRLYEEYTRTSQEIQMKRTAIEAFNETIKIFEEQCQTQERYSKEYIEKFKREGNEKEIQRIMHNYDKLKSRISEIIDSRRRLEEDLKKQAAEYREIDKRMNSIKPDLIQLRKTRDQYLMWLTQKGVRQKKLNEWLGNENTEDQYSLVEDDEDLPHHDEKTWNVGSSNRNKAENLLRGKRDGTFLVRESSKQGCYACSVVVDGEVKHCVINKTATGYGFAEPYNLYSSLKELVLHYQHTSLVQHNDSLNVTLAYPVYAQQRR
T3 sequence (P48736 whole entry): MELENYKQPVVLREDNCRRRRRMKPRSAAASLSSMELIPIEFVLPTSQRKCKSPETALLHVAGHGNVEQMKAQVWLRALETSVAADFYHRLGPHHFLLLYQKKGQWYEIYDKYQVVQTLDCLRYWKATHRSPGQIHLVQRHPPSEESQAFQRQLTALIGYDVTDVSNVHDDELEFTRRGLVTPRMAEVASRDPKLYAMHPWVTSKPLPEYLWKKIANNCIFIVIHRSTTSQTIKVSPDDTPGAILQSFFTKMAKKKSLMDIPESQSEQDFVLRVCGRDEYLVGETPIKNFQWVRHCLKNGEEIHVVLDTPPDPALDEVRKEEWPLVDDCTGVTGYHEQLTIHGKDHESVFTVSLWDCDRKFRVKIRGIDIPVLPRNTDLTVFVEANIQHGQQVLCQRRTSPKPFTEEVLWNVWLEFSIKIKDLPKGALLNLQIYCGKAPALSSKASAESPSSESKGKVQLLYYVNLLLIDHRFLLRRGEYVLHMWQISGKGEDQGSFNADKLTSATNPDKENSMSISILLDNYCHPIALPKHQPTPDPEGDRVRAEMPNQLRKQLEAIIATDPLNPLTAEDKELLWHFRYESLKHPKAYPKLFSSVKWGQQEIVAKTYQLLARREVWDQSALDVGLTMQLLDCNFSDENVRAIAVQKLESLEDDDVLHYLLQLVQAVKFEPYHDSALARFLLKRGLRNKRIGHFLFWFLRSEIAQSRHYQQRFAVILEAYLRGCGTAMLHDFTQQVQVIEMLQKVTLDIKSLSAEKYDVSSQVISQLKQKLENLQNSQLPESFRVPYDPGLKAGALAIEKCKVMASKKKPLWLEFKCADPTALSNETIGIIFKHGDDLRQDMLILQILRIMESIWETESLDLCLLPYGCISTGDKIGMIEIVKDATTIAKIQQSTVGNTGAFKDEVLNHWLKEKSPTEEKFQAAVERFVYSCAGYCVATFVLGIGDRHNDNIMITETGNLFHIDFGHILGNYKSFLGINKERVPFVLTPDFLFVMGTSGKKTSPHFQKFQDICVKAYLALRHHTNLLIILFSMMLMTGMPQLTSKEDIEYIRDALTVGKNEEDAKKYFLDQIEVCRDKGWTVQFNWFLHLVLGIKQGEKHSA
T2 sequence (P42336 whole entry): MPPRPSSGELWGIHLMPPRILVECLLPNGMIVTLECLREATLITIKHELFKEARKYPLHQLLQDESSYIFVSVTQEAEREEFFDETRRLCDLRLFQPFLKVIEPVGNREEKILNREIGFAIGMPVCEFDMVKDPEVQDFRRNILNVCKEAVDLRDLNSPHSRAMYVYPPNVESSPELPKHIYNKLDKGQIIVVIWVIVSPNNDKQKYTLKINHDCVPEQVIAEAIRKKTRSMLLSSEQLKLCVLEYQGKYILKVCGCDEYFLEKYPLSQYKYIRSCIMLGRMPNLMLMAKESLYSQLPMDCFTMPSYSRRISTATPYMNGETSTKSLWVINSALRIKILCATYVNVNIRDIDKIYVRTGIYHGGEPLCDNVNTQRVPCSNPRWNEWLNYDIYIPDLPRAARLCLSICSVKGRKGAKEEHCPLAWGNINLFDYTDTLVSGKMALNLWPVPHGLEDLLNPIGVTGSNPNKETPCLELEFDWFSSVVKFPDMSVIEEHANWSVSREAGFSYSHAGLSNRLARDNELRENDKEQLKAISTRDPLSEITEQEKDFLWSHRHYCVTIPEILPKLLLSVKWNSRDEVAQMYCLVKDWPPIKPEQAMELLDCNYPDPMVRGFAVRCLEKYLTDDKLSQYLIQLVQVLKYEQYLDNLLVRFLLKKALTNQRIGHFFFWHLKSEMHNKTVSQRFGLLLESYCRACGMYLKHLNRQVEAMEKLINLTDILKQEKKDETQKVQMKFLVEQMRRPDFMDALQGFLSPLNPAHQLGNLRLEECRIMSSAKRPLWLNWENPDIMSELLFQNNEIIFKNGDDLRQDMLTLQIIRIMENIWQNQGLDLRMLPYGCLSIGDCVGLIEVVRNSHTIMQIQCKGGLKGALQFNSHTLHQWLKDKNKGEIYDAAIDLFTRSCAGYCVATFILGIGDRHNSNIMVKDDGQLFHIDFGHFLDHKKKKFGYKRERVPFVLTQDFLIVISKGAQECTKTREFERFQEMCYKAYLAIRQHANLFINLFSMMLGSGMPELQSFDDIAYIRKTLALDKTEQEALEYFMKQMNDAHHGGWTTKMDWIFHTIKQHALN
T2 sequence (P27986 whole entry partner): as the sequence (P27986 whole entry partner) above
T5 sequence (O00329 whole entry): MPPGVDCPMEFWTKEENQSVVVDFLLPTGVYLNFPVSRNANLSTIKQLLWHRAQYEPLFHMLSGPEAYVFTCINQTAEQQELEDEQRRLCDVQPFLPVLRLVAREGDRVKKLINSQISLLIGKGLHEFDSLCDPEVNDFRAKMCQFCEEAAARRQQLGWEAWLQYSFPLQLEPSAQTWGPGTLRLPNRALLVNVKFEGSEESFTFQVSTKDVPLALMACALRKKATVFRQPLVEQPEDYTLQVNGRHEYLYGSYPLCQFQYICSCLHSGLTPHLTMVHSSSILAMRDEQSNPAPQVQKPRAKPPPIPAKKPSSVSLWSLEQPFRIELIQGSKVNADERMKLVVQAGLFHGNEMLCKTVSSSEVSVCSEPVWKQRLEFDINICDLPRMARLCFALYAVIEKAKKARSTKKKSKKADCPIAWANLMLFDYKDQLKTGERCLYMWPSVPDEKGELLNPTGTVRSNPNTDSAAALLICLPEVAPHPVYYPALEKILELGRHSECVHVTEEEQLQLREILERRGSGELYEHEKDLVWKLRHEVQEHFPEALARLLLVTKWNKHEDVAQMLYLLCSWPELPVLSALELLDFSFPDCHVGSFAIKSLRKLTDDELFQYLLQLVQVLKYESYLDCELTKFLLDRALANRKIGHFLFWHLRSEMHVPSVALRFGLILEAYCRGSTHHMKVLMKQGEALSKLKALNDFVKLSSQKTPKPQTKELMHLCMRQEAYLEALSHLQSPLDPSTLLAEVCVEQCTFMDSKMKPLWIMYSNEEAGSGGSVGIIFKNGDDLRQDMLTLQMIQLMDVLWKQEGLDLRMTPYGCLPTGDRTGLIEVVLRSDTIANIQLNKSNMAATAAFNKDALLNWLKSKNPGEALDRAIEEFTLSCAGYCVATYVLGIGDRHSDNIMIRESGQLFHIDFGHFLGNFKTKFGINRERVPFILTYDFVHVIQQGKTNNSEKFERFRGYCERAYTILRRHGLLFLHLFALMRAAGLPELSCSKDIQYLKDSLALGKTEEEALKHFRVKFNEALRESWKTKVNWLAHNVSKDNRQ
T5 sequence (P27986 whole entry partner): as the sequence (P27986 whole entry partner) above

SMILES: O=C(NOCCOCCOCCOCCN1CCN(c2nc(N3CCOCC3)nc(-n3c(C(F)F)nc4ccccc43)n2)CC1)c1ccc(F)c(F)c1Nc1ccc(I)cc1F [Compound 14]
- phosphorylation of Akt (PI3K activity) in excised tumor tissue [1, 23]: inhibited phosphorylation; also recorded: significant inhibition
- inhibition of tumor Akt phosphorylation [1, 24]: 67%
- size of excised tumors ([2]; CT-26, day 14, vs vehicle control tumors): smaller in volume
- tumor growth ([2]; listed as MV4-162): significant reduction of tumor growth
- tumor growth ([2]; listed as ST-162): significant tumor growth delays
- IC50 [3, 25]: 4070 ± 290 nM
- IC50 [3, 26]: 4070 ± 290 nM
- Concurrent inhibition in tumor cell lines [4]: Concurrent inhibition was demonstrated
- cell viability [5]: as effective as the combination of ZSTK474 and PD0325901
- PI3K inhibition in cells ([6]; A549 and D54 cell lines, Western blot): inhibition was demonstrated; also recorded: most pronounced
- PI3K activity indicated by level of pAKT ([6]; cultured A549 cells, Western blot vs DMSO): high potency in inhibiting PI3K activity
- MEK1 and PI3K activities in tumor relative to vehicle control [7]: successfully modulated MEK1 and PI3K activities
- cell viability [8]: as effective as the combination of ZSTK474 and PD0325901
- IC50 [9, 27]: 467 ± 9 nM
- IC50 [10, 28]: 5800 ± 511 nM
- IC50 [10, 29]: 5800 ± 511 nM
- IC50 [11]: 0.15 nM
- phosphorylation of ERK1/2 (MEK1 activity) in excised tumor tissue [12, 23]: inhibited phosphorylation; also recorded: significant inhibition
- inhibition of tumor ERK1/2 phosphorylation [12, 24]: 95%
- IC50 [13]: 191 to 341 nM
- MEK inhibition in cells [14]: inhibition was demonstrated; also recorded: most pronounced
- overall survival [15]: improved animal survival; also recorded: significant improvement (P=0.0054)
- MEK1 and PI3K activities in tumor relative to vehicle control [16]: successfully modulated both MEK1 and PI3K activities
- tumor growth [17]: significant tumor growth delays; also recorded: significant reduction of tumor growth
- MEK1 and PI3K activities in tumor relative to vehicle control [18]: successfully modulated both MEK1 and PI3K activities

- IC50 ([10]; ST-182 and intermediates, read-out: PI3Kγ IC50): 0.83 ± 0.1 nM
SMILES: COc1ncc(-c2ccc3nccc(-c4ccnnc4)c3c2)cc1NS(=O)(=O)c1ccc(F)cc1F [GSK 458, reference compound]
- IC50 [19]: 0.06 nM

- IC50 [3, 25]: 1480 ± 377 nM
- IC50 [3, 26]: 1480 ± 377 nM
- IC50 [9, 27]: 69.2 ± 2.2 nM
- IC50 ([9]; read-out: PI3K Subtype Enzyme Inhibition Data IC50 PI3Kα): 69.2 ± 2.2 nM
- IC50 [10, 28]: 2290 ± 241 nM
- IC50 [10, 29]: 2290 ± 241 nM
- IC50 ([20]; mean ± SEM, read-out: PI3K Subtype Inhibition Activity PI3Kδ): 41.7 ± 2.1 nM
- IC50 ([20]; read-out: PI3K Subtype Enzyme Inhibition Data IC50 PI3Kδ): 41.7 ± 2.1 nM
SMILES: O=C(NOCCOCCOCCOCCC(=O)N1CCN(c2nc(N3CCOCC3)nc(-n3c(C(F)F)nc4ccccc43)n2)CC1)c1ccc(F)c(F)c1Nc1ccc(I)cc1F [ST-168]
- Concurrent inhibition in tumor cell lines [4]: Concurrent inhibition was demonstrated
- MEK1 and PI3K activities in tumor relative to vehicle control [7]: successfully modulated MEK1 and PI3K activities
- MEK1 and PI3K activities in tumor relative to vehicle control [16]: successfully modulated both MEK1 and PI3K activities
- inhibition of mTOR/MEK1/PI3K in tumor tissue [21]: combined inhibition of mTOR/MEK1/PI3K was achieved
- MEK1 and PI3K activities in tumor relative to vehicle control [18]: successfully modulated both MEK1 and PI3K activities
- reduction in tumor size over vehicle control ([22]; A375, 400 mg/kg daily oral, 35 days post-treatment initiation): > 6 fold
- lifespan ([22]; A375 tumor bearing mice, 400 mg/kg daily oral): significantly increased lifespan
- side effects (such as loss in body weight) ([22]; long term dosage, 40 daily oral doses, 400 mg/kg): no detectable side effects
